Read-outs that look alike come from different tables or passages of the source.
Legend:
[1] = in vivo; cited from earlier work
sleep apnea patient = assay: Oral dosing comparator 2: two immediate release dosages in succession (T0 and T3), AHI; format: in vivo, human; conditions: immediate release dosages at T0 and T3
Procedure: (§1) For the purpose of comparing oral medicaments (i.e., providing a comparator), a medicament is orally administered to one or more subjects. The various factors affecting ADME (absorption, distribution, metabolism, and excretion) of the drug are standardized. For example, the patient is optionally a fasted patient and optionally falls asleep within one of 15 minutes or 30 minutes of laying down for bed. The same subjects are used for comparing different medicaments (after providing an appropriate wash-out period).
(§2) Plasma levels of the drug (e.g. THC) and metabolites thereof (e.g. 11-OH-THC) are taken at regular intervals (e.g. every 30 minutes) during a treatment window (e.g. from T0 to T8hr).
(§3) Therapeutic responses are recorded throughout the entire treatment window.
(§4) Therapeutic responses are correlated with pharmacokinetic parameters of the drug or metabolites thereof. The pharmacokinetic parameters include one or more of: plasma concentration and AUC (at various times).
A second oral dosing comparator is provided by the method of Example 6, where a first immediate release dosage of cannabinoid (e.g. 2.5 mg MARINOL® soft gel) to a sleep apnea patient 30 minutes before bed at To. The patient is allowed to fall asleep and at a predetermined time, the subject is briefly woken to receive a second immediate release dosage of MARINOL® soft gel (e.g. at T3) and allowed to return to sleep.

[2] = cited from earlier work
rat model of sleep apnea = conditions: 10 mg/kg intraperitoneal, US 2004/0127572; cited from earlier work
subjects = assay: Oral dosing comparator 1: single immediate release dosage, AHI; format: in vivo, human
Procedure: as §1, §2, §3, §4
An oral dosing “comparator” is provided by orally administering an immediate release dosage of cannabinoid (e.g. MARINOL® soft gel).

[3] = described in US 2007/0072939; not shown for sleep related disorders; cited from earlier work

Row | SMILES | Side Effects, Digestive [1] | Side Effects, Musculoskeletal [1] | Side Effects, Skin and Appendages [1] | Side Effects, Special senses [1] | therapeutic window (sleep apnea patient; lower doses (e.g. 5 mg-20 mg)) | AHI (sleep apnea patient; subjects receiving 1 to 75 mg) | Side effects with co-administration ([2]; with antipyrine, barbiturates) | Side effects with co-administration ([2]; with atropine, scopolamine, antihistamines, other anticholinergic agents) | Side effects with co-administration ([2]; with barbiturates, benzodiazepines, ethanol, lithium, opioids, buspirone, antihistamines, muscle relaxants, other CNS depressants) | Side effects with co-administration ([2]; with disulfiram, person who smoked marijuana) | Side effects with co-administration ([2]; with fluoxetine 20 mg/day x 4 wks, person, smoking marijuana) | Side effects with co-administration ([2]; with theophylline, smoking of marijuana) | breathing cessation during non-REM (NREM) sleep (rat model of sleep apnea) | therapeutic window (subjects; lower doses (e.g. 5 mg-20 mg)) | AHI (subjects; subjects receiving 1 to 75 mg) | activity compared to the trans-(−)-enantiomer [3]
1 | CCCCCc1cc(O)c2c(c1)OC(C)(C)[C@@H]1CCC(C)=C[C@@H]21 [Dronabinol, Delta-9-tetrahydrocannabinol] | Diarrhea*, fecal incontinence. | Myalgias. | Flushing*. | Vision difficulties. | generally extends through the seventh or eighth hour of sleep | improved | Decreased clearance of these agents, | super-additive tachycardia, drowsiness | Additive drowsiness and CNS depression | reversible hypomanic reaction was reported | became hypomanic after smoking marijuana; | Increased theophylline metabolism reported | reduced breathing cessation | does not consistently extend through the seventh or eighth hour of sleep | improved | 
2 | CCCCCc1cc(O)c2c(c1)OC(C)(C)C1CCC(C)=CC21 (single isomer, unassigned) [trans-(+) enantiomer, trans-(+)-THC] |  |  |  |  |  |  |  |  |  |  |  |  |  |  |  | about 1%

Source: patent US20120231083A1, “SUSTAINED RELEASE CANNABINOID MEDICAMENTS” (The Board of Trustees of the University of Illinois, priority 2010, published 2012)
